In series [1] the test system is SW-620. The experiment in a line: Induction of cell cycle arrest in human SW620 cells assessed as accumulation at G2/M phase at 5.92 uM after 24 hrs by propidium iodide staining-based flow cytometric analysis (reference value: 20.06%). Format: functional.
Series [2] deals with SW-620. The experiment in a line: Induction of cell cycle arrest in human SW620 cells assessed as accumulation at S phase at 5.92 uM after 24 hrs by propidium iodide staining-based flow cytometric analysis (reference value: 23.83%). The class given is functional. A general note: In flow cytometry, cells or beads pass a laser one at a time.
Series [3] relates to SW-620. The experiment in a line: Induction of apoptosis in human SW620 cells assessed as viable cells at 5.92 uM after 24 hrs by annexin V/propidium iodide staining-based flow cytometric analysis (reference value: 96.9%). The conditions noted are these: SW-620, 24 h, read-out: Activity. The class given is functional.
In series [4] the test system is SW-620. The experiment in a line: Induction of cell cycle arrest in human SW620 cells assessed as accumulation at G0/G1 phase at 2.96 uM after 24 hrs by propidium iodide staining-based flow cytometric analysis (reference value: 56.11%). The class given is functional.
The subject of series [5] is SW-620. Kind of series: Induction of morphological changes in human SW620 cells assessed as nuclear condensation at […] to 1.48 uM after 24 hrs by acridine orange/propidium iodide staining based microscopic analysis. The class given is functional, cell-based.
For series [6], the system named is SW-620. The experiment in a line: Induction of apoptosis in human SW620 cells assessed as necrotic cells at 0.74 uM after 24 hrs by annexin V/propidium iodide staining-based flow cytometric analysis (reference value: 0.30%). Format: functional.
Series [7] concerns SW-620. The experiment in a line: Induction of apoptosis in human SW620 cells assessed as increase in Bax/Bcl2 ratio at 0.74 to 11.84 uM after 24 hrs by Western blot analysis. Format: functional, cell-based. Background: In western blotting, separated proteins are transferred to a membrane and probed.
The subject of series [8] is SW-620. Kind of series: Induction of apoptosis in human SW620 cells assessed as increase in cleaved caspase-3 at 0.74 to 11.84 uM after 24 hrs by Western blot analysis. The class given is functional, cell-based.
The next series deals with RKO. Kind of series: Cytotoxicity against human RKO cells after 24 hrs by MTT assay. Format: functional, cell-based. (In general: Formazan colour is commonly taken as a measure of viable cells.)
Series [9] relates to SW-620. Kind of series: Induction of cell cycle arrest in human SW620 cells assessed as accumulation at S phase at 2.96 uM after 24 hrs by propidium iodide staining-based flow cytometric analysis (reference value: 23.83%). Format: functional.
For series [10], the system named is SW-620. The experiment in a line: Effect on AKT expression in human SW620 cells at 0.74 to 11.84 uM after 24 hrs by Western blot analysis. The class given is cell-based. Particulars: sw-620, 24 h.
Series [11] deals with SW-620. Kind of series: Induction of cell cycle arrest in human SW620 cells assessed as accumulation at G0/G1 phase at 11.84 uM after 24 hrs by propidium iodide staining-based flow cytometric analysis (reference value: 56.11%). The class given is functional.
Series [12] relates to SW-620. Kind of series: Induction of apoptosis in human SW620 cells assessed as late apoptotic cells at 11.84 uM after 24 hrs by annexin V/propidium iodide staining-based flow cytometric analysis (reference value: 2.40%). The class given is functional.
For series [13], the system named is SW-620. Kind of series: Induction of apoptosis in human SW620 cells assessed as viable cells at 11.84 uM after 24 hrs by annexin V/propidium iodide staining-based flow cytometric analysis (reference value: 96.9%). Format: functional. The conditions noted are these: SW-620, 24 h, read-out: Activity.
The test system of series [14] is SW-620. The experiment in a line: Cytotoxicity against human SW620 cells after 24 hrs by MTT assay. The conditions noted are these: SW-620, 24 h. Format: functional, cell-based.
The test system of series [15] is SW-620. The experiment in a line: Effect on mTOR expression in human SW620 cells at 0.74 to 11.84 uM after 24 hrs by Western blot analysis. Particulars: sw-620, 24 h. Format: cell-based.

This is an account of results in ChEMBL document CHEMBL4610097, “Daphnane Diterpenoids from Daphne genkwa Inhibit PI3K/Akt/mTOR Signaling and Induce Cell Cycle Arrest and Apoptosis in Human Colon Cancer Cells” (J Nat Prod, 2020).

For orientation: IC50 means the concentration that inhibits the measured activity by half. High values mean weaker potency in that assay, low ones greater potency in that assay.

Active and inactive are the calls of the source. The calls are words filed in the database; no cut-off is given here.

For `C=C(C)[C@@]12O[C@@]3(/C=C/C=C/CCCCC)O[C@@H]1[C@@H]1[C@H](O)[C@@](O)(CO)[C@@H](O)[C@]4(O)C(=O)C(C)=C[C@H]4[C@@]1(O3)[C@H](C)[C@H]2OC(=O)c1ccccc1`, the Activity with SW-620 [1] is 3.52%; with SW-620 [2] it was 11.73%; with SW-620 [4], 82.07%; in the series on SW-620 [6], 0.1%; in the series on SW-620 [9], 12.76%; in the series on SW-620 [10], “Non-Toxic”. For the same compound, the Activity in the series with SW-620 [11] was 88.08%; with SW-620 [12], 86.3%; in the series with SW-620 [15] it was “Non-Toxic”. Besides, the viability at 5.92 µM in the series on SW-620 [3] came out at 36.6%. Moreover, the result in the series with SW-620 [5], in the series with SW-620 [7] and in the series with SW-620 [8] was Active. In addition, the 50% inhibitory concentration (IC50) worked out at 6.5 µM in the series with RKO and 3 µM in the series with SW-620 [14]. Besides, in the series on SW-620 [13], the viability at 11.84 µM turned out to be 1.33%.
